pIC50: −log10 of the molar value. Where two headings read alike, the source gives them in different places.
Columns and labels:
HT29 = assay: cells; settings: Homo sapiens, HT-29
NCI/ADR-RES = NCI/ADR-RES (Ovarian Cancer panel)
COLO 205 [1] = system: COLO 205
NCI-H226 [2] = assay: cells; settings: Homo sapiens, NCI-H226
HCT-15 [3] = system: HCT-15
SF-295 [4] = system: SF-295
HCT-15 [5] = assay: cells; settings: Homo sapiens, HCT-15
NCI-H226 [6] = system: NCI-H226
788-0 [7] = assay: cells; settings: Homo sapiens, 786-0
HCC-2998 = assay: cells; settings: Homo sapiens, HCC 2998
UACC-62 = assay: cells; settings: Homo sapiens, UACC-62
CAKI-1 = assay: cells; settings: Homo sapiens, CAKI-1
SF-295 [8] = assay: cells; settings: Homo sapiens, SF-295
NCI-H522 = assay: cells; settings: Homo sapiens, NCI-H522
SF-539 = assay: cells; settings: Homo sapiens, SF-539
OVCAR-4 = assay: cells; settings: Homo sapiens, OVCAR-4
BT-549 = assay: cells; settings: Homo sapiens, BT-549
788-0 [9] = settings: 786-0
DU-145 = assay: cells; settings: Homo sapiens, DU-145
COLO 205 [10] = assay: cells; settings: Homo sapiens, COLO 205
SF-268 = assay: cells; settings: Homo sapiens, SF-268
[11] = Log10 Concentration −4.0, Molar
[12] = Log10 Concentration −5.0, Molar
[13] = Log10 Concentration −6.0, Molar
[14] = Log10 Concentration −7.0, Molar
[15] = Log10 Concentration −8.0, Molar

`CNC(=O)NC[C@H]1O[C@@H](n2cnc3c(NC(=O)Nc4ccccc4)ncnc32)C(O[Si](C)(C)C(C)(C)C)[C@H]1O[Si](C)(C)C(C)(C)C` (stereo partly drawn) [Compound 25, 2′,3′-Bis-O-(tert-butyldimethylsilyl)-5-deoxy-5′-[(N-methylcarbamoyl)amino]-N^6-(N-phenylcarbamoyl)adenosine] was tested, and the GI50 (HT29) was 2.02 µM, the pIC50 (HT29) was 5.05 and the TGI (NCI/ADR-RES) was 2.07E−5 Molar. For the same compound, the “Percent Growth” value (NCI/ADR-RES; Log10 Concentration −4.0 Molar) was −21%, the “Percent Growth” value (NCI/ADR-RES; Log10 Concentration −5.0 Molar) was 10% and the “Percent Growth” value (NCI/ADR-RES; Log10 Concentration −6.0 Molar) was 103%. For the same compound, the “Percent Growth” value (NCI/ADR-RES; Log10 Concentration −7.0 Molar) was 109%, the “Percent Growth” value (NCI/ADR-RES; Log10 Concentration −8.0 Molar) was 105% and the TGI (COLO 205 [1]) was 3.35E−6 Molar. For the same compound, the “Percent Growth” value (COLO 205 [1]; [11]) was −94%, the “Percent Growth” value (COLO 205 [1]; [12]) was −95% and the “Percent Growth” value (COLO 205 [1]; [13]) was 105%. The “Percent Growth” value (COLO 205 [1]; [14]) was 111%, the “Percent Growth” value (COLO 205 [1]; [15]) was 109% and the GI50 (NCI-H226 [2]) was 3.1 µM. For the same compound, the pIC50 (NCI-H226 [2]) was < 4.00, the TGI (NCI-H460) was 3.49E−6 Molar and the “Percent Growth” value (NCI-H460; [11]) was −75%. For the same compound, the “Percent Growth” value (NCI-H460; [12]) was −74%, the “Percent Growth” value (NCI-H460; [13]) was 88% and the “Percent Growth” value (NCI-H460; [14]) was 93%. The “Percent Growth” value (NCI-H460; [15]) was 104%, the TGI (HCT-15 [3]) was >1.00E−4 Molar and the “Percent Growth” value (HCT-15 [3]; [11]) was 6%. The “Percent Growth” value (HCT-15 [3]; [12]) was 11%, the “Percent Growth” value (HCT-15 [3]; [13]) was 100% and the “Percent Growth” value (HCT-15 [3]; [14]) was 106%. For the same compound, the “Percent Growth” value (HCT-15 [3]; [15]) was 105%, the TGI (SF-295 [4]) was 3.18E−5 Molar and the “Percent Growth” value (SF-295 [4]; [11]) was −7%. For the same compound, the “Percent Growth” value (SF-295 [4]; [12]) was 7%, the “Percent Growth” value (SF-295 [4]; [13]) was 111% and the “Percent Growth” value (SF-295 [4]; [14]) was 107%. For the same compound, the “Percent Growth” value (SF-295 [4]; [15]) was 103%, the GI50 (HCT-15 [5]) was 3.62 µM and the pIC50 (HCT-15 [5]) was < 4.00. The TGI (NCI-H226 [6]) was 3.63E−6 Molar, the “Percent Growth” value (NCI-H226 [6]; [11]) was −48% and the “Percent Growth” value (NCI-H226 [6]; [12]) was −7%. For the same compound, the “Percent Growth” value (NCI-H226 [6]; [13]) was 105%, the “Percent Growth” value (NCI-H226 [6]; [14]) was 106% and the “Percent Growth” value (NCI-H226 [6]; [15]) was 102%. For the same compound, the TGI (OVCAR-3) was 5.54E−6 Molar, the “Percent Growth” value (OVCAR-3; [11]) was −50% and the “Percent Growth” value (OVCAR-3; [12]) was −39%. For the same compound, the “Percent Growth” value (OVCAR-3; [13]) was 113%, the “Percent Growth” value (OVCAR-3; [14]) was 113% and the “Percent Growth” value (OVCAR-3; [15]) was 111%. It also gave a GI50 (788-0 [7]) of 2.04 µM, a pIC50 (788-0 [7]) of 5.17 and a GI50 (HCC-2998) of 2.02 µM. The pIC50 (HCC-2998) was 5.16, the GI50 (UACC-62) was 3.98 µM and the pIC50 (UACC-62) was < 4.00. For the same compound, the GI50 (CAKI-1) was 2.7 µM, the pIC50 (CAKI-1) was < 4.00 and the TGI (LOX IMVI) was 3.36E−6 Molar. For the same compound, the “Percent Growth” value (LOX IMVI; [11]) was −77%, the “Percent Growth” value (LOX IMVI; [12]) was −89% and the “Percent Growth” value (LOX IMVI; [13]) was 98%. The “Percent Growth” value (LOX IMVI; [14]) was 101%, the “Percent Growth” value (LOX IMVI; [15]) was 102% and the TGI (UO-31) was 9.56E−6 Molar. The “Percent Growth” value (UO-31; [11]) was −21%, the “Percent Growth” value (UO-31; [12]) was −2% and the “Percent Growth” value (UO-31; [13]) was 84%. For the same compound, the “Percent Growth” value (UO-31; [14]) was 97%, the “Percent Growth” value (UO-31; [15]) was 87% and the GI50 (SF-295 [8]) was 3.84 µM. The pIC50 (SF-295 [8]) was < 4.00, the GI50 (NCI-H522) was 2.39 µM and the pIC50 (NCI-H522) was < 4.00. The GI50 (SF-539) was 3.07 µM, the pIC50 (SF-539) was 4.03 and the TGI (IGROV1) was 7.76E−6 Molar. The “Percent Growth” value (IGROV1; [11]) was −39%, the “Percent Growth” value (IGROV1; [12]) was −12% and the “Percent Growth” value (IGROV1; [13]) was 98%. The “Percent Growth” value (IGROV1; [14]) was 99%, the “Percent Growth” value (IGROV1; [15]) was 100% and the GI50 (OVCAR-4) was 3.44 µM. For the same compound, the pIC50 (OVCAR-4) was < 4.00, the GI50 (BT-549) was 2.92 µM and the pIC50 (BT-549) was < 4.00. The TGI (788-0 [9]) was 3.71E−6 Molar, the “Percent Growth” value (788-0 [9]; Log10 Concentration −4.0 Molar) was −80% and the “Percent Growth” value (788-0 [9]; Log10 Concentration −5.0 Molar) was −83%. For the same compound, the “Percent Growth” value (788-0 [9]; Log10 Concentration −6.0 Molar) was 110%, the “Percent Growth” value (788-0 [9]; Log10 Concentration −7.0 Molar) was 113% and the “Percent Growth” value (788-0 [9]; Log10 Concentration −8.0 Molar) was 103%. It also gave a GI50 (DU-145) of 2.59 µM, a pIC50 (DU-145) of 4.73 and a GI50 (COLO 205 [10]) of 1.59 µM. The pIC50 (COLO 205 [10]) was 5.22, the TGI (U251) was 1.08E−5 Molar and the “Percent Growth” value (U251; [11]) was −46%. For the same compound, the “Percent Growth” value (U251; [12]) was 2%, the “Percent Growth” value (U251; [13]) was 93% and the “Percent Growth” value (U251; [14]) was 102%. For the same compound, the “Percent Growth” value (U251; [15]) was 102%, the GI50 (SF-268) was 3.58 µM and the pIC50 (SF-268) was < 4.00.
